ChEMBL document CHEMBL4725342, “Design, synthesis and structure-activity relationship study of piperazinone-containing thieno[3,2-d]pyrimidine derivatives as new PI3Kδ inhibitors” (Bioorg Med Chem Lett, 2020)

Legend:
[1] = target: T1, Phosphatidylinositol 4,5-bisphosphate 3-kinase catalytic subunit delta isoform (Homo sapiens, UniProt O00329); test: Inhibition of PI3Kdelta (unknown origin)
T1 sequence (O00329 whole entry): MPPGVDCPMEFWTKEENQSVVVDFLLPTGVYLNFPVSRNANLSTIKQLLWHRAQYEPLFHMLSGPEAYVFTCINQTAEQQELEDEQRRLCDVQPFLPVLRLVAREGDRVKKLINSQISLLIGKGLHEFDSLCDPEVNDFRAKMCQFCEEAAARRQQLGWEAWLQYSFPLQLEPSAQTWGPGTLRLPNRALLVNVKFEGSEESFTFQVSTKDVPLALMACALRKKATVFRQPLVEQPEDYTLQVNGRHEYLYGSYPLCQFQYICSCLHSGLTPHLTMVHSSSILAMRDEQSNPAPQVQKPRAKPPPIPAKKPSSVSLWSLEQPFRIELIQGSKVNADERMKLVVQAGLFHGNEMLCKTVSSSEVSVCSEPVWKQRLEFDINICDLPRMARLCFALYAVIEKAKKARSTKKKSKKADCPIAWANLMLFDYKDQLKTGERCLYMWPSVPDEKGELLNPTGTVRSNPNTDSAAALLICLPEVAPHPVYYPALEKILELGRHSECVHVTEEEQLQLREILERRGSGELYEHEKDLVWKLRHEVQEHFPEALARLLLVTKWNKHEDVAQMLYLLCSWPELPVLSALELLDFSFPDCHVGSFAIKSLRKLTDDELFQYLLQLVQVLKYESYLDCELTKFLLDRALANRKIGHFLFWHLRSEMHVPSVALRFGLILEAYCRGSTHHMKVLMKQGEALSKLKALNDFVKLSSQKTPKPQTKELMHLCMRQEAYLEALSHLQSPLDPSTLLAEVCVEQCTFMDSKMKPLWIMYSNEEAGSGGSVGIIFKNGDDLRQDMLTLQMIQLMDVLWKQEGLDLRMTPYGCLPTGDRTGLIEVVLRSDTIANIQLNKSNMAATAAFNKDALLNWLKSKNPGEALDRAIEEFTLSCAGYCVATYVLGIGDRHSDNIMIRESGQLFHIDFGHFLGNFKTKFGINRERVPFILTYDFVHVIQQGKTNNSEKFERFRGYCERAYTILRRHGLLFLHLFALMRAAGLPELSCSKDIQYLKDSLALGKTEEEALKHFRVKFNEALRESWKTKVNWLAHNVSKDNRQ

Homo sapiens = species on record: Homo sapiens; test: Selectivity index, ratio of IC50 for PI3Kalpha (unknown origin) to IC50 for PI3Kdelta (unknown origin)
L02 = test: Cytotoxicity against human L02 cells assessed as reduction in cell viability by MTS assay; format: cell-based
[2] = target: Phosphatidylinositol 4,5-bisphosphate 3-kinase catalytic subunit gamma isoform (Homo sapiens, UniProt P48736); test: Inhibition of PI3Kgamma (unknown origin)
HEK293 = test: Cytotoxicity against human HEK293 cells assessed as reduction in cell viability by MTS assay; format: cell-based
OCI-Ly10 = test: Antiproliferative activity against human OCILY10 assessed as reduction in cell growth by MTS assay; format: functional, cell-based
OCI-Ly3 = test: Antiproliferative activity against human OCILY3 assessed as reduction in cell growth by MTS assay; format: functional, cell-based
Vero = test: Cytotoxicity against monkey Vero cells assessed as reduction in cell viability by MTS assay; format: cell-based; details: Chlorocebus sabaeus
[3] = target: Phosphatidylinositol 4,5-bisphosphate 3-kinase catalytic subunit beta isoform (Homo sapiens, UniProt P42338); test: Inhibition of PI3Kbeta (unknown origin)
SU-DHL-6 = test: Antiproliferative activity against human SU-DHL-6 assessed as reduction in cell growth by MTS assay; format: functional, cell-based
[4] = target: Phosphatidylinositol 4,5-bisphosphate 3-kinase catalytic subunit alpha isoform (Homo sapiens, UniProt P42336); test: Inhibition of PI3Kalpha (unknown origin)
JeKo-1 = test: Antiproliferative activity against human JeKo-1 assessed as reduction in cell growth by MTS assay; format: functional, cell-based

Sequence of Phosphatidylinositol 4,5-bisphosphate 3-kinase catalytic subunit beta isoform (P42338 whole entry, canonical isoform): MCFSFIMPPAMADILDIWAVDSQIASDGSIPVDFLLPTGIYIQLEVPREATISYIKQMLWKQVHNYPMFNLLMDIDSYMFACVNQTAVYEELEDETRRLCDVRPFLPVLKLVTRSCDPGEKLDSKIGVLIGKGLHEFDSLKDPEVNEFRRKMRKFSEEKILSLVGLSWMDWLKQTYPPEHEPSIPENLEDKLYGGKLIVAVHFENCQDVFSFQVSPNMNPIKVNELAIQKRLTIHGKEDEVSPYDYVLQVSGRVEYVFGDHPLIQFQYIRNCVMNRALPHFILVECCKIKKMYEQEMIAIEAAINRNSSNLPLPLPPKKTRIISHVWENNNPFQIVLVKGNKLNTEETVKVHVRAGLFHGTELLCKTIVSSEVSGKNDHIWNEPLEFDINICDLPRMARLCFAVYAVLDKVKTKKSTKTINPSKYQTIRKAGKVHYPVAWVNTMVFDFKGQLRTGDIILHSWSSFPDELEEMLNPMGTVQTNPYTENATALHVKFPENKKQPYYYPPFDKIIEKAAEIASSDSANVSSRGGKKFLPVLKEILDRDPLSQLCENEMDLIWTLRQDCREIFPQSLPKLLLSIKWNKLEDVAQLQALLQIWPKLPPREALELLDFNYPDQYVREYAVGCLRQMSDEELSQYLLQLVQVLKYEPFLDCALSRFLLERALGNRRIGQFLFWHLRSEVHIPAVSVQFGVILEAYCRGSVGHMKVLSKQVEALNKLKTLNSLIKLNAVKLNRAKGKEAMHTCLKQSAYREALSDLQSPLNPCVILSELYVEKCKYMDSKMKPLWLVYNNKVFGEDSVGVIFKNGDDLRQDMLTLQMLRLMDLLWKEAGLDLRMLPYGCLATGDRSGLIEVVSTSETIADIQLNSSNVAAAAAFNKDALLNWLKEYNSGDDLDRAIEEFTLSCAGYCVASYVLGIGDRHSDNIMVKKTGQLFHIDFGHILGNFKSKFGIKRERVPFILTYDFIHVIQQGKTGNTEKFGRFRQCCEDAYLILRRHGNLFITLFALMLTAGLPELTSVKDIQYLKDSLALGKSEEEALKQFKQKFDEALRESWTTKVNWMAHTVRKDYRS
Sequence of Phosphatidylinositol 4,5-bisphosphate 3-kinase catalytic subunit gamma isoform (P48736 whole entry, canonical isoform): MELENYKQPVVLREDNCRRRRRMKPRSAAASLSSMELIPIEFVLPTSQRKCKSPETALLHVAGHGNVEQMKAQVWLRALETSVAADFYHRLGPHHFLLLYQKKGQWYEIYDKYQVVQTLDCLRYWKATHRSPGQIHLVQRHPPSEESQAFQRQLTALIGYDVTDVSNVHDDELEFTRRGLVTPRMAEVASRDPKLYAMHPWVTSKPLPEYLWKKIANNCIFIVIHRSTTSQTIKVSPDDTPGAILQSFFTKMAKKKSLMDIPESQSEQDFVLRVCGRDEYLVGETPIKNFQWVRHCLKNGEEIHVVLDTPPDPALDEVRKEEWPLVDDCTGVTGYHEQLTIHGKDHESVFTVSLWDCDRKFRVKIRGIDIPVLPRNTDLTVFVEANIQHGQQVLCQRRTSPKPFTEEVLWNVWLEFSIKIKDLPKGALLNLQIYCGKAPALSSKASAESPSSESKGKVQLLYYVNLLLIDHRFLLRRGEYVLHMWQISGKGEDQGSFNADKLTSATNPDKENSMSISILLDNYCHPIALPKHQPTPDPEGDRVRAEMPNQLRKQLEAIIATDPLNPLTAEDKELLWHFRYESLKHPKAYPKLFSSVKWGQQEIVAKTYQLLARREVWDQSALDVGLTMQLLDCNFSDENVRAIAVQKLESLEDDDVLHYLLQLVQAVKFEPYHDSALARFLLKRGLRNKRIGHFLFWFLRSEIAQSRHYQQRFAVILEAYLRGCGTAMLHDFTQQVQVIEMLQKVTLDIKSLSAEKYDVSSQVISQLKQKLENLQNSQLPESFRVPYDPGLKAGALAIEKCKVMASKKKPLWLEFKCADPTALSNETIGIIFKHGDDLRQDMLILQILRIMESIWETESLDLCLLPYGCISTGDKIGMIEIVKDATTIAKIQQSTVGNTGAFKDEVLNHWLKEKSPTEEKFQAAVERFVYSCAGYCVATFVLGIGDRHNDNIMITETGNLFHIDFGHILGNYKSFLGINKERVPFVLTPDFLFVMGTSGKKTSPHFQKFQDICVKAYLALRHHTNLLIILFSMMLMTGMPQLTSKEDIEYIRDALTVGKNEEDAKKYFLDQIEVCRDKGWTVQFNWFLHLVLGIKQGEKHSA
Sequence of Phosphatidylinositol 4,5-bisphosphate 3-kinase catalytic subunit alpha isoform (P42336 whole entry, canonical isoform): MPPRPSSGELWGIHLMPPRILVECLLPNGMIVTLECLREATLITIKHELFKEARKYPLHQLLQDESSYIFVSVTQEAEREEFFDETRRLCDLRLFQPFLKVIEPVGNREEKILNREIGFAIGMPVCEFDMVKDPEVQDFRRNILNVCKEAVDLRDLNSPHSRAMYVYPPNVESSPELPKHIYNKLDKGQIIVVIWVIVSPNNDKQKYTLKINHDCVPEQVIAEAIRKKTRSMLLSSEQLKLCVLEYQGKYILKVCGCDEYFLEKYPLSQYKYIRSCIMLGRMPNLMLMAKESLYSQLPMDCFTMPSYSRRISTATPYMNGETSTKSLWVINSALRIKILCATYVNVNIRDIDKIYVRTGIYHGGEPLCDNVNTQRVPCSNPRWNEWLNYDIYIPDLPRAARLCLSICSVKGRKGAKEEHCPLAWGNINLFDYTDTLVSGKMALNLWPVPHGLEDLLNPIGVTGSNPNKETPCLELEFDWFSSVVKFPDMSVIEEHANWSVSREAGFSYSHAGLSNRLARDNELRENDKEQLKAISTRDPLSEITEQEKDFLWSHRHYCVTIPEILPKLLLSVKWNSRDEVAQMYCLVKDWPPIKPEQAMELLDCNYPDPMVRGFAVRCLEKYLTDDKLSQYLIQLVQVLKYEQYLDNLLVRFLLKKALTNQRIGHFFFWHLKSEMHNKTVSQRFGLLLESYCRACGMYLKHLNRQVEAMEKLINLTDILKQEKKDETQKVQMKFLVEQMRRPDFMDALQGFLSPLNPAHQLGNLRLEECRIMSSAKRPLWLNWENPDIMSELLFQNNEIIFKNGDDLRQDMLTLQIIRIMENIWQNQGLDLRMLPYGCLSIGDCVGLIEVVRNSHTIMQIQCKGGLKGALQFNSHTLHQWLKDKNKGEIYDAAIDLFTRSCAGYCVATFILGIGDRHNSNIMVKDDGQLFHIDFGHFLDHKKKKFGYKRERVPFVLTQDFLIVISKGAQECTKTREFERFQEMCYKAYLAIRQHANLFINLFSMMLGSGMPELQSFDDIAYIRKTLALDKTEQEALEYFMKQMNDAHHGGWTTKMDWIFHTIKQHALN

Row | Compound | IC50 [1] | Ratio IC50 (Homo sapiens) | further results
1 | CCc1nc2ccccc2n1-c1nc(N2CCOCC2)c2sc(CN3CCN(c4nccs4)C(=O)C3)cc2n1 | 2.1 nM | 7.7 | 
2 | CCc1nc2ccccc2n1-c1nc(N2CCOCC2)c2sc(CN3CCN(S(C)(=O)=O)CC3)cc2n1 | 4.1 nM | 2.4 | 
3 | CCc1nc2ccccc2n1-c1nc(N2CCOCC2)c2sc(CN3CCN(S(=O)(=O)CC)CC3=O)cc2n1 | 4.4 nM | 10 | 
4 | CCc1nc2ccccc2n1-c1nc(N2CCOCC2)c2sc(CN3CCN(CC(F)(F)F)CC3=O)cc2n1 | 6.3 nM | 32 | 
5 | CCc1nc2ccccc2n1-c1nc(N2CCOCC2)c2sc(CN3CCN(CC(N)=O)CC3=O)cc2n1 | 6.2 nM | 25 | 
6 | CCCS(=O)(=O)N1CCN(Cc2cc3nc(-n4c(CC)nc5ccccc54)nc(N4CCOCC4)c3s2)C(=O)C1 | 3.5 nM | 4 | 
7 | CCc1nc2ccccc2n1-c1nc(N2CCOCC2)c2sc(CN3CCN(S(=O)(=O)C4CC4)CC3)cc2n1 | 4.8 nM | 13 | 
8 | CCc1nc2ccccc2n1-c1nc(N2CCOCC2)c2sc(CN3CCN(C4CCC(O)CC4)C(=O)C3)cc2n1 (configuration not stated) | 5.7 nM | 7.7 | 
9 | CCc1nc2ccccc2n1-c1nc(N2CCOCC2)c2sc(CN3CCN(C)C(=O)C3)cc2n1 | 4.9 nM | 53 | 
10 | CCc1nc2ccccc2n1-c1nc(N2CCOCC2)c2sc(CN3CCN(C4CCCC4)C(=O)C3)cc2n1 | 2.1 nM |  | IC50 (L02): > 20000 nM; IC50 [2]: > 500 nM; IC50 (HEK293): > 20000 nM; IC50 (OCI-Ly10): > 10000 nM; IC50 (OCI-Ly3): 2800 nM; IC50 (Vero): > 20000 nM; IC50 [3]: > 500 nM; IC50 (SU-DHL-6): 180 nM; IC50 [4]: 250 nM; IC50 (JeKo-1): 170 nM
11 | CCc1nc2ccccc2n1-c1nc(N2CCOCC2)c2sc(CN3CCNC(=O)C3)cc2n1 | 20 nM | 13 | 
12 | CCc1nc2ccccc2n1-c1nc(N2CCOCC2)c2sc(CN3CCN(CC(=O)N4CCOCC4)C(=O)C3)cc2n1 | 15 nM | 11 | 
13 | CCc1nc2ccccc2n1-c1nc(N2CCOCC2)c2sc(CN3CCN(C(=O)OC(C)(C)C)CC3=O)cc2n1 | 12 nM | 52 | 
14 | CCc1nc2ccccc2n1-c1nc(N2CCOCC2)c2sc(CN3CCN(C(=O)[C@H](C)O)CC3=O)cc2n1 | 3.6 nM | 49 | 
15 | CCc1nc2ccccc2n1-c1nc(N2CCOCC2)c2sc(CN3CCN(CC)C(=O)C3)cc2n1 | 4.1 nM | 10 | 
16 | C=CC(=O)N1CCN(Cc2cc3nc(-n4c(CC)nc5ccccc54)nc(N4CCOCC4)c3s2)C(=O)C1 | 2.9 nM | 43 | 
17 | CCc1nc2ccccc2n1-c1nc(N2CCOCC2)c2sc(CN3CCN(CC(N)=O)C(=O)C3)cc2n1 | 12 nM | 7.1 | 
18 | C=CCN1CCN(Cc2cc3nc(-n4c(CC)nc5ccccc54)nc(N4CCOCC4)c3s2)C(=O)C1 | 1.6 nM |  | IC50 (L02): > 20000 nM; IC50 [2]: 266 nM; IC50 (HEK293): > 20000 nM; IC50 (OCI-Ly10): > 10000 nM; IC50 (OCI-Ly3): 8600 nM; IC50 (Vero): > 20000 nM; IC50 [3]: 232 nM; IC50 (SU-DHL-6): 570 nM; IC50 [4]: 295 nM; IC50 (JeKo-1): 470 nM
19 | CCc1nc2ccccc2n1-c1nc(N2CCOCC2)c2sc(CN3CCN(C4CCCC4)CC3)cc2n1 | 42 nM | 31 | 
20 | CCc1nc2ccccc2n1-c1nc(N2CCOCC2)c2sc(CN3CCN(c4cccnc4)C(=O)C3)cc2n1 | 13 nM | 12 | 
21 | CCc1nc2ccccc2n1-c1nc(N2CCOCC2)c2sc(CN3CCN([C@H]4CC[C@H](O)CC4)C(=O)C3)cc2n1 | 2.1 nM | 35 | 
22 | CCc1nc2ccccc2n1-c1nc(N2CCOCC2)c2sc(CN3CCN(c4cnn(C)c4)C(=O)C3)cc2n1 | 3.4 nM | 24 | 
23 | CC[C@H](Nc1ncnc2[nH]cnc12)c1nc2cccc(F)c2c(=O)n1-c1ccccc1 [IDELALISIB] |  |  | IC50 (L02): > 20000 nM; IC50 (HEK293): > 20000 nM; IC50 (OCI-Ly10): > 10000 nM; IC50 (OCI-Ly3): 5200 nM; IC50 (Vero): > 20000 nM; IC50 (SU-DHL-6): 120 nM; IC50 (JeKo-1): 120 nM

The next lines start with results.

Row | IC50 [1] | Ratio IC50 (Homo sapiens) | Compound | further results
24 | 2.2 nM | 10 | CCc1nc2ccccc2n1-c1nc(N2CCOCC2)c2sc(CN3CCN(S(C)(=O)=O)CC3=O)cc2n1 | 
25 | 6.2 nM | 61 | CCc1nc2ccccc2n1-c1nc(N2CCOCC2)c2sc(CN3CCN(C4CCOCC4)CC3=O)cc2n1 | 
26 | 1.2 nM | 38 | CCc1nc2ccccc2n1-c1nc(N2CCOCC2)c2sc(CN3CCN(S(=O)(=O)C4CC4)CC3=O)cc2n1 | 
27 | 15 nM | 25 | CCc1nc2ccccc2n1-c1nc(N2CCOCC2)c2sc(CN3CCN(C4CCN(C)CC4)CC3=O)cc2n1 | 
28 | 2.2 nM | 13 | CCc1nc2ccccc2n1-c1nc(N2CCOCC2)c2sc(CN3CCN(C4CCC5(CC4)OCCO5)CC3=O)cc2n1 | 
29 | 14 nM | 8 | CCc1nc2ccccc2n1-c1nc(N2CCOCC2)c2sc(CN3CCN(C4CCC(N5CCCC5)CC4)CC3=O)cc2n1 (configuration not stated) | 
30 | 2.1 nM | 53 | CCc1nc2ccccc2n1-c1nc(N2CCOCC2)c2sc(CN3CCN(C(C)C)CC3=O)cc2n1 | 
31 | 6.3 nM | 64 | CCc1nc2ccccc2n1-c1nc(N2CCOCC2)c2sc(CN3CCN(CC4CC4)CC3=O)cc2n1 | 
32 | 4.5 nM | 7.7 | CCc1nc2ccccc2n1-c1nc(N2CCOCC2)c2sc(CN3CCN(C)CC3=O)cc2n1 | 
33 | 2.9 nM |  | CCc1nc2ccccc2n1-c1nc(N2CCOCC2)c2sc(CN3CCN(C4CCCC4)CC3=O)cc2n1 | IC50 (L02): > 20000 nM; IC50 [2]: 370 nM; IC50 (HEK293): > 20000 nM; IC50 (OCI-Ly10): > 10000 nM; IC50 (OCI-Ly3): 6900 nM; IC50 (Vero): > 20000 nM; IC50 [3]: > 500 nM; IC50 (SU-DHL-6): 530 nM; IC50 [4]: 243 nM; IC50 (JeKo-1): 560 nM
34 | 2.5 nM | 49 | CCc1nc2ccccc2n1-c1nc(N2CCOCC2)c2sc(CN3CCN(CC4CC4)C(=O)C3)cc2n1 | 
35 | 12 nM | 21 | CCc1nc2ccccc2n1-c1nc(N2CCOCC2)c2sc(CN3CCN(C4CCCCC4)CC3=O)cc2n1 | 
36 | 1.4 nM |  | CCc1nc2ccccc2n1-c1nc(N2CCOCC2)c2sc(CN3CCN(C(=O)C4CCC4)CC3=O)cc2n1 | IC50 (L02): > 20000 nM; IC50 [2]: 303 nM; IC50 (HEK293): > 20000 nM; IC50 (OCI-Ly10): > 10000 nM; IC50 (OCI-Ly3): 1500 nM; IC50 (Vero): > 20000 nM; IC50 [3]: 165 nM; IC50 (SU-DHL-6): 80 nM; IC50 [4]: 117 nM; IC50 (JeKo-1): 120 nM
37 | 3.2 nM | 35 | CCc1nc2ccccc2n1-c1nc(N2CCOCC2)c2sc(CN3CCN(C(C)=O)CC3=O)cc2n1 | 
38 | 3.8 nM | 71 | CCc1nc2ccccc2n1-c1nc(N2CCOCC2)c2sc(CN3CCN(C4CCC(F)(F)CC4)CC3=O)cc2n1 | 
39 | 4.8 nM | 56 | CCc1nc2ccccc2n1-c1nc(N2CCOCC2)c2sc(CN3CCN(C4CCSCC4)CC3=O)cc2n1 | 
40 | 2 nM | 95 | CCc1nc2ccccc2n1-c1nc(N2CCOCC2)c2sc(CN3CCN(C(=O)C4CCCC4)CC3=O)cc2n1 | 
41 | 14 nM | 36 | CCc1nc2ccccc2n1-c1nc(N2CCOCC2)c2sc(CN3CCN(C4CCC(N(C)C)CC4)CC3=O)cc2n1 (configuration not stated) | 
42 | 1.1 nM |  | CCc1nc2ccccc2n1-c1nc(N2CCOCC2)c2sc(CN3CCN(C(=O)C4CC4)CC3=O)cc2n1 | IC50 (L02): > 20000 nM; IC50 [2]: 185 nM; IC50 (HEK293): > 20000 nM; IC50 (OCI-Ly10): 7600 nM; IC50 (OCI-Ly3): 2200 nM; IC50 (Vero): > 20000 nM; IC50 [3]: 137 nM; IC50 (SU-DHL-6): 100 nM; IC50 [4]: 84 nM; IC50 (JeKo-1): 190 nM
43 | 7.9 nM | 43 | CCc1nc2ccccc2n1-c1nc(N2CCOCC2)c2sc(CN3CCN(C(=O)C4CCCCC4)CC3=O)cc2n1 | 
44 | 1.6 nM |  | CCc1nc2ccccc2n1-c1nc(N2CCOCC2)c2sc(CN3CCN(C4CCC(=O)CC4)CC3=O)cc2n1 | 
